Values after ≈ are worked out from the molar mass of the structure shown. Values joined by “and” are separate entries in the source; they are usually repeats but may differ in a detail not shown here. Equal entries are not always repeated.
target: EGFR (UniProt P00533)
Sequence (P00533 whole entry, looked up): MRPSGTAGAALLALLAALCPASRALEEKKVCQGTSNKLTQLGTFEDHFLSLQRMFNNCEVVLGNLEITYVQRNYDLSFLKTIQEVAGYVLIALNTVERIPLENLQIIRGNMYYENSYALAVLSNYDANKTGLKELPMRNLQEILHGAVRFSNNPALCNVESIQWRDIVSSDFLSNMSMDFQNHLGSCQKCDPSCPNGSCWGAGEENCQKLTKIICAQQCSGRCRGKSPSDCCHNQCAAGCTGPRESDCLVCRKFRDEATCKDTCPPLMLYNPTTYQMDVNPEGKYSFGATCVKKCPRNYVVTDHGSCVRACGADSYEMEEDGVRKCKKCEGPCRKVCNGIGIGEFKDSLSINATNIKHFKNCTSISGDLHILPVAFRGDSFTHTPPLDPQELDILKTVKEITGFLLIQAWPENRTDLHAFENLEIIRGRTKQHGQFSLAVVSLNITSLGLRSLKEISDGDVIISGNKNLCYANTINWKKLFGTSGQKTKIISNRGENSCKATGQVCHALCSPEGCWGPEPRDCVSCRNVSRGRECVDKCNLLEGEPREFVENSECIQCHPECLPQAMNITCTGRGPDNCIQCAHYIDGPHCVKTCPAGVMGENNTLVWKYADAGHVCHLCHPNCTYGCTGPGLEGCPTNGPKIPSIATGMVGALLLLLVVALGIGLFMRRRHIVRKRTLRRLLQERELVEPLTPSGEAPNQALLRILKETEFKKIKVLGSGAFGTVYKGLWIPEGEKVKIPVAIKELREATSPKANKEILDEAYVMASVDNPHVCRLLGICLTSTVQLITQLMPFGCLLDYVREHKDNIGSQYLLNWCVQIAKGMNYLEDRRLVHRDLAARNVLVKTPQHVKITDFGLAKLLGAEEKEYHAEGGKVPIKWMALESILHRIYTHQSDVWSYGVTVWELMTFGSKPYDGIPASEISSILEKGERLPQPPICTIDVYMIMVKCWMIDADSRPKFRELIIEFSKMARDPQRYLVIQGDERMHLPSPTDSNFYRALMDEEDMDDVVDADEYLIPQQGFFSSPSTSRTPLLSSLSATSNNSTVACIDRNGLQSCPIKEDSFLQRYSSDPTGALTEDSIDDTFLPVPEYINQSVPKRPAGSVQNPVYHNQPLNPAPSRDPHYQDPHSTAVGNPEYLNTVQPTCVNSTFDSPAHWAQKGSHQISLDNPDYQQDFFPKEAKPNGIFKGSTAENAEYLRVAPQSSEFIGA

IC50 | Compound
> 4.5 µg/mL | COc1ccc(Nc2nc3ccccc3n2-c2ncnc(Nc3cc(OC)c(OC)c(OC)c3)n2)cc1OC
2.4 to 3.5 µg/mL (≈ 4.86 to 7.09 µM) | COc1cc(Nc2ncnc(-n3c(=O)[nH]c4ccccc43)n2)cc(OC)c1OCCN1CCOCC1
< 0.4 µg/mL | COc1ccc(Nc2ncnc(N(C)c3ccc(Cl)c(Cl)c3)n2)cc1OC
> 4.5 µg/mL | Fc1ccccc1Nc1ncnc(-c2ccccc2)n1
2.4 to 3.5 µg/mL (≈ 5.29 to 7.71 µM) | COc1cc(Nc2ncnc(Nc3cc(-c4ccc(Cl)cc4)n[nH]3)n2)cc(OC)c1OC
> 4.5 µg/mL | COc1ccccc1Nc1ncnc(-c2ccccc2)n1
0.4 to 2.4 µg/mL (≈ 1.09 to 6.57 µM) | COc1ccc(Nc2ncnc(N(C)[C@H](C)c3ccccc3)n2)cc1OC
> 4.5 µg/mL | O=c1[nH]c2ccccc2n1-c1ncnc(Nc2ccncc2)n1
< 0.4 µg/mL | Cc1cccc(Nc2ncnc(Nc3cc(-c4ccccc4)n[nH]3)n2)c1
< 0.4 µg/mL | Clc1cccc(Nc2ncnc(Nc3cc(-c4ccccc4)n[nH]3)n2)c1
0.4 to 2.4 µg/mL (≈ 0.779 to 4.67 µM) | COc1cc(Nc2ncnc(-n3c(N[C@@H](CO)c4ccccc4)nc4ccccc43)n2)cc(OC)c1OC
> 4.5 µg/mL | CC(C)(C)c1ccc(Nc2ncnc(-n3c(N)nc4ccccc43)n2)cc1
3.5 to 4.5 µg/mL (≈ 6.87 to 8.83 µM) | COc1cc(Nc2ncnc(-n3c(Nc4ccc5[nH]ncc5c4)nc4ccccc43)n2)cc(OC)c1OC
2.4 to 3.5 µg/mL (≈ 5.54 to 8.08 µM) | O=C(Nc1cccc(Nc2ncnc(-n3c(=O)[nH]c4ccccc43)n2)c1)O[C@@H]1CCOC1
> 4.5 µg/mL | COc1cc(Nc2ncnc(-n3c(NCc4ccccc4F)nc4ccccc43)n2)cc(OC)c1OC
> 4.5 µg/mL | COc1cc(Nc2ncnc(-n3c(Nc4cccc(C)c4)nc4ccccc43)n2)cc(OC)c1OC
> 4.5 µg/mL | COc1cc(Nc2ncnc(-n3c(NCc4ccc(C(F)(F)F)cc4)nc4ccccc43)n2)cc(OC)c1OC
< 0.4 µg/mL | COc1cc(Nc2ncnc(N(C/C=C/c3ccccc3)c3ccc(Cl)cc3)n2)cc(OC)c1OC
> 4.5 µg/mL | Nc1ncnc(-n2c(N)nc3ccccc32)n1
> 4.5 µg/mL | O=c1[nH]c2ccccc2n1-c1ncnc(Nc2ccc(Cl)cc2Cl)n1
> 4.5 µg/mL | Nc1nc2ccccc2n1-c1ncnc(Nc2ccccc2)n1
> 4.5 µg/mL | COC(=O)Cc1cccc(Nc2ncnc(-n3c(NCc4ccccn4)nc4ccccc43)n2)c1
> 4.5 µg/mL | COc1cc(Nc2ncnc(-n3c(NCc4ccccc4Cl)nc4ccccc43)n2)cc(OC)c1OC
> 4.5 µg/mL | COc1ccc(Nc2ncnc(-n3c(N)nc4ccccc43)n2)cn1
> 4.5 µg/mL | COc1ccc(Nc2ncnc(-n3c(N)nc4ccccc43)n2)cc1OCCN1CCOCC1

IC50 | Compound
> 4.5 µg/mL | COc1cc(Nc2ncnc(-n3c(N)nc4ccccc43)n2)ccc1OCCn1ccnn1
> 4.5 µg/mL | COC(=O)c1cc(OC)c(OC)cc1Nc1ncnc(-n2c(N)nc3ccccc32)n1
2.4 to 3.5 µg/mL (≈ 7.08 to 10.3 µM) | O=c1[nH]c2ccccc2n1-c1ncnc(Nc2cccc(Cl)c2)n1
> 4.5 µg/mL | COc1cc(Nc2ncnc(-c3ccccc3)n2)cc(OC)c1OC
> 4.5 µg/mL | O=c1[nH]c2ccccc2n1-c1ncnc(Nc2ccc3ccccc3c2)n1
> 4.5 µg/mL | Nc1ccc(Nc2ncnc(-c3ccccc3)n2)cc1
2.4 to 3.5 µg/mL (≈ 4.96 to 7.24 µM) | COc1cc(Nc2ncnc(-n3c(NCc4ccccc4)nc4ccccc43)n2)cc(OC)c1OC
< 0.4 µg/mL | Clc1cccc(Nc2ncnc(Nc3ccc4[nH]ncc4c3)n2)c1
< 0.4 µg/mL | CCc1ccc(Nc2nc3ccccc3n2-c2ncnc(Nc3cc(OC)c(OC)c(OC)c3)n2)cc1
> 4.5 µg/mL | COc1cc(Nc2ncnc(-n3ccc4cc(F)ccc43)n2)cc(OC)c1OC
> 4.5 µg/mL | COc1cc(Nc2ncnc(-n3c(N)nc4ccccc43)n2)cc(OC)c1OC
2.4 to 3.5 µg/mL (≈ 6.24 to 9.1 µM) | Nc1nc2ccccc2n1-c1ncnc(Nc2cccc(Cn3ccnn3)c2)n1
3.5 to 4.5 µg/mL and 2.4 to 3.5 µg/mL | COc1cc(Nc2ncnc(-n3c(NC4CCCc5ccccc54)nc4ccccc43)n2)cc(OC)c1OC (configuration not stated)
> 4.5 µg/mL | O=c1[nH]c2ccccc2n1-c1ncnc(Nc2cnc3ccccc3c2)n1
> 4.5 µg/mL | COc1cc(Nc2ncnc(-n3c(NCCc4ccccn4)nc4ccccc43)n2)cc(OC)c1OC
> 4.5 µg/mL | COC(=O)Cc1cccc(Nc2ncnc(-n3c(NCc4ccc(OC)cc4)nc4ccccc43)n2)c1
> 4.5 µg/mL | Brc1ccc(Nc2ncnc(-n3cccc3)n2)cc1
0.4 to 2.4 µg/mL (≈ 1.08 to 6.48 µM) | Nc1nc2ccccc2n1-c1ncnc(Nc2cccc(-c3cnco3)c2)n1
> 4.5 µg/mL | Cc1ccc(Nc2ncnc(-n3cccc3)n2)cc1Cl
> 4.5 µg/mL | COc1cc(Nc2ncnc(-n3c(Nc4ccccc4)nc4ccccc43)n2)cc(OC)c1OC
> 4.5 µg/mL | CN(c1cccc(Cl)c1)c1ncnc(N[C@@H]2CCN(Cc3ccccc3)C2)n1
> 4.5 µg/mL | FC(F)(F)c1ccc(Cl)c(Nc2ncnc(-n3cccc3)n2)c1
3.5 to 4.5 µg/mL (≈ 9.25 to 11.9 µM) | COc1cc(Nc2ncnc(-n3cnc4ccccc43)n2)cc(OC)c1OC
> 4.5 µg/mL | COc1cc(Nc2ncnc(-n3c(N[C@H](CO)c4ccccc4)nc4ccccc43)n2)cc(OC)c1OC
> 4.5 µg/mL | COc1cc(Nc2ncnc(-n3c(NCc4ccc(Cl)cc4F)nc4ccccc43)n2)cc(OC)c1OC

The remaining lines, values behind:

Compound | IC50
COc1cc(Nc2ncnc(-c3cccnc3NCC3CCCCC3)n2)cc(OC)c1OC | > 4.5 µg/mL
c1ccc(CCNc2ncnc(Nc3ccc4c(cnn4Cc4ccccc4)c3)n2)cc1 | > 4.5 µg/mL
COc1cc(Nc2ncnc(N[C@@H](CO)c3ccccc3)n2)cc(OC)c1OC | > 4.5 µg/mL
COc1cc(Nc2ncnc(-n3c(NCc4ccccn4)nc4ccccc43)n2)cc(OC)c1OCCn1ccnn1 | > 4.5 µg/mL
c1ccc(Nc2ncccc2-c2ncnc(Nc3cccc(Cn4ccnn4)c3)n2)cc1 | > 4.5 µg/mL
NC(=O)c1cccc(Nc2ncnc(Nc3cc(-c4ccco4)n[nH]3)n2)c1 | < 0.4 µg/mL
Nc1ncnc(Nc2cccc(C(F)(F)F)c2)n1 | > 4.5 µg/mL
COc1cc(Nc2ncnc(Nc3ccc(C(C)C)cc3)n2)cc(OC)c1OC | > 4.5 µg/mL
COc1cc(Nc2ncnc(N3CCCC4CCCCC43)n2)cc(OC)c1OC (configuration not stated) | < 0.4 µg/mL
COc1cc(Nc2ncnc(-c3cccnc3Nc3ccc(C(C)=O)cc3)n2)cc(OC)c1OC | > 4.5 µg/mL
COc1ncnc(Nc2cc(OC)c(OC)c(OC)c2)n1 | > 4.5 µg/mL
COC(=O)c1ccc(-c2cc(Nc3ncnc(NC4=NC(=O)CS4)n3)[nH]n2)cc1 | 0.4 to 2.4 µg/mL (≈ 0.975 to 5.85 µM)
COc1cc(Nc2ncnc(NC(=O)NCc3ccccc3)n2)cc(OC)c1OC | 0.4 to 2.4 µg/mL (≈ 0.975 to 5.85 µM)
COc1cc(Nc2ncnc(Nc3cc(-c4ccc(C)cc4)n[nH]3)n2)cc(OC)c1OC | 0.4 to 2.4 µg/mL (≈ 0.923 to 5.54 µM)
COc1cc(Nc2ncnc(NCc3ccccc3)n2)cc(OC)c1OC | < 0.4 µg/mL
COc1cc(Nc2ncnc(-c3cccnc3NCC(C)c3ccccc3)n2)cc(OC)c1OC (configuration not stated) | > 4.5 µg/mL
CCOC(=O)CNc1ncnc(N2CCCc3cc(C)ccc32)n1 | > 4.5 µg/mL
COc1cc(Nc2ncnc(Nc3cc(OC)c(OC)c(OC)c3)n2)ccc1OCCN1CCOCC1 | 0.4 to 2.4 µg/mL (≈ 0.78 to 4.68 µM)
COc1ccc2c(ccn2-c2ncnc(Nc3cc(OC)c(OC)c(OC)c3)n2)c1 | 3.5 to 4.5 µg/mL (≈ 8.59 to 11 µM)

Compound | IC50
CN(c1cccc(Cl)c1)c1ncnc(Nc2ccc(OC(F)(F)F)cc2)n1 | 0.4 to 2.4 µg/mL (≈ 1.01 to 6.06 µM)
COc1ccc(-c2cn[nH]c2Nc2ncnc(Nc3cc(OC)c(OC)c(OC)c3)n2)cc1OC | 3.5 to 4.5 µg/mL (≈ 7.3 to 9.38 µM)
c1ccc(Cn2ncc3cc(Nc4ncnc(NCCN5CCCC5)n4)ccc32)cc1 | > 4.5 µg/mL
COCCOc1ccc(Nc2ncnc(Nc3ccc(C)c(O)c3)n2)cc1OCCOC | 0.4 to 2.4 µg/mL (≈ 0.906 to 5.44 µM)
COc1cc(Nc2ncnc(Nc3ccc(O)cc3)n2)cc(OC)c1OC | 0.4 to 2.4 µg/mL (≈ 1.08 to 6.5 µM)
COC(=O)c1cc(Nc2ncnc(Nc3cc(-c4ccco4)n[nH]3)n2)cc(C(=O)OC)c1 | > 4.5 µg/mL
c1ccc(CNc2ncccc2-c2ncnc(Nc3cccc(Cn4ccnn4)c3)n2)cc1 | 0.4 to 2.4 µg/mL (≈ 0.918 to 5.51 µM)
COc1ccc(Oc2ncnc(Nc3cc(OC)c(OC)c(OC)c3)n2)cc1 | 2.4 to 3.5 µg/mL (≈ 6.24 to 9.11 µM)
Nc1ncnc(Nc2cccc(Nc3ncnc(N)n3)c2)n1 | > 4.5 µg/mL
COC(=O)c1ccc(-c2cc(Nc3ncnc(NCCNC(C)=O)n3)[nH]n2)cc1 | > 4.5 µg/mL
COc1cc(Nc2ncnc(Nc3cc(-c4ccc(Cl)c(Cl)c4)n[nH]3)n2)cc(OC)c1OC | 2.4 to 3.5 µg/mL (≈ 4.91 to 7.17 µM)
COc1cc(Nc2ncnc(-c3cccnc3NC3CCCc4ccccc43)n2)cc(OC)c1OC (configuration not stated) | 3.5 to 4.5 µg/mL (≈ 7.22 to 9.29 µM)
COc1cc(Nc2ncnc(-c3ccsc3)n2)cc(OC)c1OC | > 4.5 µg/mL
COc1ccc(Nc2ncnc(Nc3cccc(-c4ccnc(C)n4)c3)n2)cc1OC | > 4.5 µg/mL
C=CCNc1cc(-c2ncnc(Nc3cc(OC)c(OC)c(OC)c3)n2)ccn1 | > 4.5 µg/mL
CCOC(=O)N1CCC(Nc2ncnc(N3CCCc4cc(C)ccc43)n2)CC1 | > 4.5 µg/mL
COc1cc(Nc2ncnc(NN3CCOCC3)n2)cc(OC)c1OC | > 4.5 µg/mL
COc1cc(Nc2ncnc(-n3c(N)nc4ccccc43)n2)cc(OCCN2CCOCC2)c1OC | > 4.5 µg/mL
CN(c1cccc(Cl)c1)c1ncnc(Cl)n1 | > 4.5 µg/mL

Compound | IC50
COc1cc(Nc2ncnc(Nc3ccc(N(C)C(C)=O)cc3)n2)cc(OC)c1OC | > 4.5 µg/mL
CN(c1cccc(Cl)c1)c1ncnc(NCCN2CCCCC2)n1 | 2.4 to 3.5 µg/mL (≈ 6.92 to 10.1 µM)
COc1ccc(CNc2ncnc(Nc3ccc4c(cnn4Cc4ccccc4)c3)n2)cc1OC | 3.5 to 4.5 µg/mL (≈ 7.49 to 9.62 µM)
CC(C)(C)c1cc(Nc2ncnc(Cl)n2)[nH]n1 | > 4.5 µg/mL
c1ccc(-c2cc(Nc3ncnc(Nc4cccc(-c5cnco5)c4)n3)[nH]n2)cc1 | 0.4 to 2.4 µg/mL (≈ 1.01 to 6.05 µM)
CCOC(=O)Cc1ccc(Nc2ncnc(-c3ccccc3)n2)cc1 | > 4.5 µg/mL
COc1ccc2c(c1)nc(NCc1ccccc1)n2-c1ncnc(Nc2cc(OC)c(OC)c(OC)c2)n1.COc1ccc2nc(NCc3ccccc3)n(-c3ncnc(Nc4cc(OC)c(OC)c(OC)c4)n3)c2c1 | 0.4 to 2.4 µg/mL
COC(=O)c1ccc(-c2cc(Nc3ncnc(NCCN4CCNC4=O)n3)[nH]n2)cc1 | > 4.5 µg/mL
COc1cc(Nc2ncnc(Nc3ccc(N(C)C)cc3)n2)cc(OC)c1OC | 2.4 to 3.5 µg/mL (≈ 6.05 to 8.83 µM)
COc1cc(Nc2ncnc(-n3cccc3)n2)cc(OC)c1OC | > 4.5 µg/mL
COc1cc(Nc2ncnc(-c3c(O)[nH]c4ccc(Cl)cc34)n2)cc(OC)c1OC | 2.4 to 3.5 µg/mL (≈ 5.61 to 8.18 µM)
COc1cc(Nc2ncnc(Nc3ccc(F)cc3)n2)cc(OC)c1OC | 0.4 to 2.4 µg/mL (≈ 1.08 to 6.46 µM)
COC(=O)c1ccc(-c2cc(Nc3ncnc(Nc4cccc(C(N)=O)c4)n3)[nH]n2)cc1 | > 4.5 µg/mL
Fc1ccc(CNc2ncnc(Nc3cc(-c4ccco4)n[nH]3)n2)cc1 | 3.5 to 4.5 µg/mL (≈ 9.96 to 12.8 µM)
COc1ccc(Nc2ncnc(-c3ccccc3)n2)cc1 | > 4.5 µg/mL
COCCOc1cc(Nc2ncnc(Nc3ccc(C)c(O)c3)n2)ccc1OC | < 0.4 µg/mL
COc1cc(Nc2ncnc(N3CCC(O)CC3)n2)cc(OC)c1OC | > 4.5 µg/mL
COc1cc(Nc2ncnc(-c3cccnc3N)n2)cc(OC)c1OC | > 4.5 µg/mL
CC(C)(C)OC(=O)NCc1cccc(Nc2ncnc(Nc3cc(-c4ccco4)n[nH]3)n2)c1 | 0.4 to 2.4 µg/mL (≈ 0.892 to 5.35 µM)
